In PubChem BioAssay (NCI):
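Step 1: Grow cells in 96-well plates. Step 2: Expose to compound for 48 hours at 5 concentrations. Step 3: Interpolate endpoints linearly; if unreached, use highest concentration. GI50: concentration for 50% inhibition of growth. At the TGI there is no net growth.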

Assays:
Assay in all cases: inhibition of tumour cell growth, NCI panel, 48 h
K-562 leukemia = system: K-562 leukemia
HL-60(TB) leukemia = system: HL-60(TB) leukemia
DU-145 prostate = system: DU-145 prostate
BT-549 breast = system: BT-549 breast
MOLT-4 leukemia = system: MOLT-4 leukemia
NCI-H522 lung = system: NCI-H522 lung
SF-295 CNS = system: SF-295 CNS
RPMI-8226 leukemia = system: RPMI-8226 leukemia
NCI-H460 lung = system: NCI-H460 lung
COLO 205 colon = system: COLO 205 colon

| Compound | GI50 (K-562 leukemia) [µM] | TGI (K-562 leukemia) [µM] | GI50 (HL-60(TB) leukemia) [µM] | TGI (HL-60(TB) leukemia) [µM] | GI50 (DU-145 prostate) [µM] | TGI (DU-145 prostate) [µM] | GI50 (BT-549 breast) [µM] | TGI (BT-549 breast) [µM] | GI50 (MOLT-4 leukemia) [µM] | TGI (MOLT-4 leukemia) [µM] | GI50 (NCI-H522 lung) [µM] | TGI (NCI-H522 lung) [µM] | GI50 (SF-295 CNS) [µM] | TGI (SF-295 CNS) [µM] | GI50 (RPMI-8226 leukemia) [µM] | TGI (RPMI-8226 leukemia) [µM] | GI50 (NCI-H460 lung) [µM] | TGI (NCI-H460 lung) [µM] | GI50 (COLO 205 colon) [µM] | TGI (COLO 205 colon) [µM] |
| --- | --- | --- | --- | --- | --- | --- | --- | --- | --- | --- | --- | --- | --- | --- | --- | --- | --- | --- | --- | --- |
| CCN1C(=O)N(CC)C2C1NN=c1s/c(=C\c3cc4ccccc4[nH]3)c(=O)n12 (stereo unspecified) | < 0.01 | > 100 | < 0.0117 | < 0.0191 | 0.0225 | > 100 | 0.0178 | 16 | < 0.018 | > 100 | < 0.0164 | 1.02 | < 0.0112 | 14.8 | < 0.0185 | 2.19 | 0.0331 | 14.8 | 0.0201 | 0.0448 |
| CN(C)CC1CCCCCC(CN(C)C)C1=O (stereo unspecified) | 1.44 | 7.07 | 2.24 | 8.57 | 3.19 | 12.4 | 3.46 | 15.9 | 2 | 5.51 | 0.145 | 0.392 | 19.7 | 47.2 | 3.15 | 13.9 | 18 | 36.8 | 1.2 | 2.68 |
| C=C1CCC2C3(C)COC(c4ccccc4Br)OC3CCC2(C)C1C/C=C1/C(=O)OCC1OC(C)=O (stereo unspecified) | 0.396 | 4.4 | 0.708 | 2.98 | 1.58 | 2.99 | 1.7 | 3.71 | 0.821 | 2.91 | 0.604 | 2.03 | 1.82 | 4.57 | 0.645 | 6.52 | 1.74 | 3.29 | 1.66 | 3.2 |
| O=C(OCCBr)c1ccc(Cl)c([N+](=O)[O-])c1 | 3.15 | 13.2 | 15.7 | 42.6 | 2.31 | 5.27 | 18.1 | 33.1 | 23.7 | 55.3 | 0.957 | 3.04 | 15.5 | 30.5 | 7.09 | 19 | 14.9 | 33.5 | 16.8 | 31.5 |
| COc1cc(C(=O)/C=C/c2cccnc2Nc2ccccc2)cc(OC)c1OC |  |  | 1.52 | 4.98 | 0.723 | 1.94 | 1.26 | 2.54 | 2.68 | 19.5 | 0.493 | 1.76 | 1.87 | 3.78 | 0.349 | 2.05 | 1.8 | 3.63 | 1.29 | 2.62 |
| COCCNc1cc(NC(=O)N2CCCc3cc(CN4CCN(C)CC4=O)c(C=O)nc32)ncc1C#N |  |  | > 50 | > 50 | > 50 | > 50 | > 50 | > 50 | > 50 | > 50 | > 50 | > 50 | > 50 | > 50 | 42.4 | > 50 | > 50 | > 50 | 27.2 | > 50 |
| COc1ccc(-c2nn(-c3cccc(Cl)c3)cc2-c2cc(-c3ccccc3)nc(N)n2)cc1 | 1.92 | 5.37 | 2.53 | 6.21 | 10.5 | 22.3 | 4.31 | 16.9 | 2.03 | 5.61 | 1.88 | 3.53 | 3.12 | 11.7 | 2.65 | 9.17 |  |  | 2.09 | 3.81 |
| CCOc1ccccc1/C=N\N=C(\N)N/N=C/c1ccccc1OCC | 0.707 | > 100 | 1.33 | 8.92 | 2.84 | > 100 | 5.08 | > 100 | 3.33 | > 100 |  |  | 1.36 | > 100 | 2.82 | > 100 | 3.16 | > 100 |  |  |
| CCCCNC(=O)NS(=O)(=O)c1ccc(N2N=C(c3cc(C)ccc3C)CC2c2cc(OC)c(OC)c(OC)c2)cc1 (stereo unspecified) | 3.14 | 12.7 | 2.87 | 7.62 | 3.46 | 11.1 | 2.73 | 9.28 | 2.74 | 8.89 | 2.39 | 7.75 |  |  | 1.95 | 5.49 | 2.46 | 5.96 | 2.6 | 5.19 |
| Cc1cn2c(/C=N/Nc3ccccn3)c(-c3ccc(Cl)c([N+](=O)[O-])c3)nc2s1 | 26.7 | > 50 | > 50 | > 50 | 6.39 | 29.8 | 21.1 | > 50 |  |  | 7.35 | 26.5 | 23 | > 50 | 30.2 | > 50 | 5.3 | 22.3 | > 50 | > 50 |
| CCC(/C=C/c1ccccc1)=N\Nc1ccc(Cl)c(Cl)c1 |  | > 100 |  | 72.5 |  | > 100 |  |  |  | > 100 |  | 46.1 |  | > 100 |  | 50.1 |  | > 100 |  | > 100 |
| CCN(CC)c1ccc(C(=N)c2ccc(N(C)C)cc2)cc1 | 0.127 | 12.8 | 0.886 | 15.9 | 1.7 | 7.18 | 0.227 | 0.966 | 1.17 | 4.55 |  |  | 0.161 | 2.88 |  |  | 1.69 | 10.8 | 0.197 | 3.06 |
